31 molecules from US10766899B2, “Methods for preparing substituted imidazo[4,5-b]pyrazines” (Cytokinetics, Inc., priority 2006, dated 2020) can be followed below.

The first assay relates to SKM MF. Nature of the assay: SKM MF AC1.4: ATPase of skeletal sarcomeric proteins (actin, tropomyosin, troponin complex, myosin), PK/LDH coupled enzyme system. In kind it is biochemical. The conditions noted are these: screen at pCa=6.5; † mean value, ‡ median value. Here is the method:
For example, test compounds can be assayed in a highly parallel fashion by using multiwell plates by placing the compounds either individually in wells or testing them in mixtures. Assay components including the target protein complex, coupling enzymes and substrates, and ATP can then be added to the wells and the absorbance or fluorescence of each well of the plate can be measured with a plate reader.
In some embodiments, the method uses a 384 well plate format and a 25 μL reaction volume. A pyruvate kinase/lactate dehydrogenase coupled enzyme system (Huang T G and Hackney D D. (1994) J Biol Chem 269(23):16493-501) can be used to measure the rate of ATP hydrolysis in each well. As will be appreciated by those in the art, the assay components are added in buffers and reagents. The incubation periods can be optimized to give adequate detection signals over the background. The assay can be done in real time giving the kinetics of ATP hydrolysis which increases the signal to noise ratio of the assay.
Actin was purified by first preparing an ether powder of cardiac muscle (Zot H G and Potter J D. (1981) Preparative Biochemistry 11:381-395) as described below. Subsequently, actin was cycled between the filamentous and soluble state through rounds of centrifugation and dialysis (Spudich J A and Watt S. (1971) J. Biol. Chem. 246:4866-4871). It was stored in the filamentous state at 4° C.
Tropomyosin was extracted from the ether powder and separated from the other proteins based on pH dependent precipitations followed by successive ammonium sulfate cuts at 53% and 65% (Smillie L B. (1981) Methods Enzymol 85 Pt B:234-41). The troponins were isolated as an intact complex of TnC, TnT, and TnI. Ether powder is extracted in a high salt buffer. Successive ammonium sulfate cuts of 30% and 45% were done; the precipitate was solubilized by dialysis into a low salt buffer and then further purified on a DEAE Toyopearl column with a 25-350 mM KCl gradient.
Just prior to screening, the actin, tropomyosin, and troponin complex are mixed together in the desired ratio (e.g., 7:1:1) to achieve maximal calcium regulation of the actin filament. The screen is conducted at a pCa=6.5. This calcium concentration is in the physiological range during muscle contraction.
To measure the generation of ADP during the reaction, a pyruvate kinase/lactate dehydrogenase/NADH coupled enzyme system (PK/LDH) is added to the actin. The myosin is kept separately. The plates are read in real time so that kinetic curves are obtained. These compounds are in DMSO and were already spotted onto the bottoms of 384 well plates at 10 to 40 μg/ml final concentration.
• 1. Obtain ˜1000 g skeletal muscle, such as rabbit skeletal muscle. • 2. Grind twice; extract with 2 L solution A for 15 min while stirring; add 4 L cold H2O, filter through gauze; dilute with cold H2O to ionic strength of 0.04, (about 10-fold); let settle for 3 h; collect precipitate at 7,000 rpm in GSA rotor for 15 min. • 3. Disperse pellet in 220 ml solution B; dialyze overnight against 6 L solution C; slowly add ˜400 ml equal volume cold distilled H2O; stir for 30 min; centrifuge at 10,000 rpm for 10 min in GSA rotor. • 4. Centrifuge supernatant at 19,000 rpm for 1 h. • 5. Dilute supernatant to ionic strength of 0.04 (˜8-fold); let myosin settle overnight; collect about 5-6 L fluffy myosin precipitate by centrifuging at 10,000 rpm for 10 min in GSA rotor. • 6. Resuspend pellet in minimal volume of solution G; dialyze overnight against 2 L solution D; centrifuge at 19,000 rpm for 2 h, in cellulose nitrate tubes; puncture tubes and separate myosin from fat and insoluble pellet. • 7. Dilute supernatant to 5-10 mg/ml and dialyze against solution E extensively, load onto DEAE-sephadex column. • 8. […]
As to “6-ethyl-1-(ethylpropyl)imidazo[4,5-b]pyrazin-2-ol”, the “SKM MF AC1.4” value is 8.58 µM.

For the molecule `CCC(CC)n1c(O)nc2ncc(OC)nc21` [6-methoxy-1-(pentan-3-yl)-1H-imidazo[4,5-b]pyrazin-2-ol], the “SKM MF AC1.4” value was 2.2^‡ μM. On to “1-(ethylpropyl)-6-(1-methylpyrazol-4-yl)imidazo[4,5-b]pyrazin-2-ol”, for which the “SKM MF AC1.4” value was found to be 15 µM. With `Oc1nc2ncc(Br)nc2n1Cc1ccccc1` [1-benzyl-6-bromo-1H-imidazo[4,5-b]pyrazin-2-ol], the “SKM MF AC1.4” value came to 23.5 µM.

On to `CCC(CC)n1c(O)nc2nc(Br)cnc21` [5-bromo-1-(pentan-3-yl)-1H-imidazo[4,5-b]pyrazin-2-ol], for which the “SKM MF AC1.4” value was found to be 11.5 µM. For `CCC(CC)n1c(O)nc2ncc(C#N)nc21` [2-hydroxy-1-(pentan-3-yl)-1H-imidazo[4,5-b]pyrazine-6-carbonitrile], the “SKM MF AC1.4” value stood at 36.4 µM. For the molecule `CCC(CN1CCN(C(=O)OC)CC1)n1c(O)nc2ncc(Br)nc21` (stereo not shown) [methyl 4-(2-(6-bromo-2-hydroxy-1H-imidazo[4,5-b]pyrazin-1-yl)butyl)piperazine-1-carboxylate], the “SKM MF AC1.4” value is reported as 0.9^† μM. The same measure, in the same setting: the result for `CCCc1cnc2nc(O)n([C@@H](C)c3ccccc3)c2n1` [(S)-1-(1-phenylethyl)-6-propyl-1H-imidazo[4,5-b]pyrazin-2-ol] reads 29.7 µM; that for “6-(1H-1,2,3-triazol-4-yl)-1-(ethylpropyl)imidazo[4,5-b]pyrazin-2-ol”, 46.64 µM. As to `CCC(CC)n1c(O)nc2nccnc21` [1-(pentan-3-yl)-1H-imidazo[4,5-b]pyrazin-2-ol], the “SKM MF AC1.4” value is reported as 16.0^† μM.

Take `Oc1nc2ncc(Br)nc2n1C1CCCCC1` [6-bromo-1-cyclohexyl-1H-imidazo[4,5-b]pyrazin-2-ol]: the “SKM MF AC1.4” value is 10.4 µM. Still for that read-out and setting: the result for `CCC(CN1CCOCC1)n1c(O)nc2nccnc21` (stereo not shown) [1-(1-morpholinobutan-2-yl)-1H-imidazo[4,5-b]pyrazin-2-ol] reads above 49 µM; that for `CC[C@H](CN1CCOCC1)n1c(O)nc2ncc(Br)nc21` [(R)-6-bromo-1-(1-morpholinobutan-2-yl)-1H-imidazo[4,5-b]pyrazin-2-ol], 0.3 µM. As for `CCC(CC)n1c(O)nc2ncc(C(F)(F)F)nc21` [1-(pentan-3-yl)-6-(trifluoromethyl)-1H-imidazo[4,5-b]pyrazin-2-ol], the “SKM MF AC1.4” value is on record as 10.4^‡ μM. Same read-out and setting: the result for `CC[C@@H](CO)n1c(O)nc2ncc(Br)nc21` [(S)-6-bromo-1-(1-hydroxybutan-2-yl)-1H-imidazo[4,5-b]pyrazin-2-ol] reads 19.1 µM; that for “1-(ethylpropyl)-6-{2-[1-(ethylpropyl)-2-hydroxyimidazo[4,5-e]pyrazin-6-yl]ethynyl}imidazo[4,5-b]pyrazin-2-ol”, 19.32 µM. Still for that read-out and setting: the result for `CCC(CN1CCN(C)CC1)n1c(O)nc2ncc(Br)nc21` (stereo not shown) [6-bromo-1-(1-(4-methylpiperazin-1-yl)butan-2-yl)-1H-imidazo[4,5-b]pyrazin-2-ol] reads 14.9 µM; that for “6-bromo-1-(propylbutyl)imidazo[4,5-b]pyrazin-2-ol”, 0.7 µM; that for `CCC(CC)n1c(O)nc2ncc(Br)nc21` [6-bromo-1-(pentan-3-yl)-1H-imidazo[4,5-b]pyrazin-2-ol], 0.25 µM. On to `CSc1cnc2nc(O)n(C(C)C)c2n1` [1-isopropyl-6-(methylthio)-1H-imidazo[4,5-b]pyrazin-2-ol], for which the “SKM MF AC1.4” value amounted to 6.7 µM. Still for that read-out and setting: the result for `CCC(CC)n1c(O)nc2ncc(SC)nc21` [6-(methylthio)-1-(pentan-3-yl)-1H-imidazo[4,5-b]pyrazin-2-ol] reads 0.4 µM.

For the molecule `C/C=C/c1cnc2nc(O)n(C(CC)CC)c2n1` [(E)-1-(pentan-3-yl)-6-(prop-1-enyl)-1H-imidazo[4,5-b]pyrazin-2-ol], the “SKM MF AC1.4” value was 0.4 µM. For `CCC(CC)n1c(O)nc2ncc(O)nc21` [1-(pentan-3-yl)-1H-imidazo[4,5-b]pyrazine-2,6-diol], the “SKM MF AC1.4” value was above 49 µM. In the case of `CCC(C(=O)O)n1c(O)nc2ncc(Br)nc21` (stereo not shown) [2-(6-bromo-2-hydroxy-1H-imidazo[4,5-b]pyrazin-1-yl)butanoic acid], the “SKM MF AC1.4” value was above 49 µM. Still for that read-out and setting: the result for `C[C@H](CN1CCOCC1)n1c(O)nc2ncc(Br)nc21` [(R)-6-bromo-1-(1-morpholinopropan-2-yl)-1H-imidazo[4,5-b]pyrazin-2-ol] reads 5.2^‡ μM; that for `C=Cc1cnc2nc(O)n(C(CC)CC)c2n1` [1-(ethylpropyl)-6-vinylimidazo[4,5-b]pyrazin-2-ol], 2.3 µM. On the same count and under the same terms, the result for `CSc1cnc2nc(O)n(Cc3ccccc3)c2n1` [1-benzyl-6-(methylthio)-1H-imidazo[4,5-b]pyrazin-2-ol] reads 22.6 µM; that for `CSc1cnc2nc(O)n(C3CCCCC3)c2n1` [1-cyclohexyl-6-(methylthio)-1H-imidazo[4,5-b]pyrazin-2-ol], 13.9 µM. Turning to `C[C@H](c1ccccc1)n1c(O)nc2ncc(Br)nc21` [(R)-6-bromo-1-(1-phenylethyl)-1H-imidazo[4,5-b]pyrazin-2-ol], the “SKM MF AC1.4” value came out at 2.4 µM. The same measure, in the same setting: the result for `CCC(CN1CCN(S(C)(=O)=O)CC1)n1c(O)nc2ncc(Br)nc21` (stereo not shown) [6-bromo-1-(1-(4-(methylsulfonyl)piperazin-1-yl)butan-2-yl)-1H-imidazo[4,5-b]pyrazin-2-ol] reads 3.2^† μM.

Still in this assay, the particulars now being: screen at pCa=6.5; † mean value, ‡ median value; listed as 1-((1R)-1-methyl-2-morpholin-4-ylethyl)-6-bromoimidazo[4,5-b]pyrazin-2-ol.
Consider `C[C@H](CN1CCOCC1)n1c(O)nc2ncc(Br)nc21` [(R)-6-bromo-1-(1-morpholinopropan-2-yl)-1H-imidazo[4,5-b]pyrazin-2-ol], for which the “SKM MF AC1.4” value is 5.19 µM.

The same assay, now with this note: screen at pCa=6.5; † mean value, ‡ median value; listed as 1-(ethylpropyl)-6-(trifluoromethyl)imidazo[4,5-b]pyrazin-2-ol.
Regarding `CCC(CC)n1c(O)nc2ncc(C(F)(F)F)nc21` [1-(pentan-3-yl)-6-(trifluoromethyl)-1H-imidazo[4,5-b]pyrazin-2-ol], the “SKM MF AC1.4” value was 10.37 µM.

The assay is the same for the next values; noted with them: screen at pCa=6.5; † mean value, ‡ median value; listed as 1-(ethylpropyl)-6-methoxyimidazo[4,5-b]pyrazin-2-ol.
Take `CCC(CC)n1c(O)nc2ncc(OC)nc21` [6-methoxy-1-(pentan-3-yl)-1H-imidazo[4,5-b]pyrazin-2-ol]: the “SKM MF AC1.4” value was found to be 2.20 µM.

Still in this assay, the particulars now being: screen at pCa=6.5; † mean value, ‡ median value; listed as 1-(pentan-3-yl)-6-(trifluoromethyl)-1H-imidazo[4,5-b]pyrazin-2(3H)-one.
Turning to `CCC(CC)n1c(O)nc2ncc(C(F)(F)F)nc21` [1-(pentan-3-yl)-6-(trifluoromethyl)-1H-imidazo[4,5-b]pyrazin-2-ol], the “SKM MF AC1.4” value is on record as 10.4^‡ μM.

Still in this assay, the particulars now being: screen at pCa=6.5; † mean value, ‡ median value; listed as 6-methoxy-1-(pentan-3-yl)-1H-imidazo[4,5-b]pyrazin-2(3H)-one.
With `CCC(CC)n1c(O)nc2ncc(OC)nc21` [6-methoxy-1-(pentan-3-yl)-1H-imidazo[4,5-b]pyrazin-2-ol], the “SKM MF AC1.4” value is reported as 2.2^‡ μM.

Still in this assay, the particulars now being: screen at pCa=6.5; † mean value, ‡ median value; listed as (R)-6-bromo-1-(1-morpholinopropan-2-yl)-1H-imidazo[4,5-b]pyrazin-2(3H)-one.
For `C[C@H](CN1CCOCC1)n1c(O)nc2ncc(Br)nc21` [(R)-6-bromo-1-(1-morpholinopropan-2-yl)-1H-imidazo[4,5-b]pyrazin-2-ol], the “SKM MF AC1.4” value was 5.2^‡ μM.

The next assay relates to rats with induced experimental autoimmune myasthenia gravis (EAMG). The assay can be described thus: Validation of EAMG model (neostigmine), grip strength. Type of assay: in vivo, Sprague-Dawley rats. As to conditions: 0.2 mg/kg intraperitoneally, 5 minutes after treatment. The procedure:
Female Sprague-Dawley rats (200-300 g) were purchased from Charles River Laboratories and given a minimum 72 hours acclimation period. Experimental autoimmune Myasthenia Gravis (EAMG) was induced by a single intra-peritoneal injection of 500 μg/kg of AChRα1/3/5 antibody (SC-58604, Santa Cruz Biotechnology, CA, USA). Fore- and hind-limb grip measurements were acquired in triplicate with a 5 kg Dual Sensor Grip Meter (Columbus Instruments, Ohio, USA) as described in Example 1. Baseline body weight and fore- and hind-grip strength of animals was measured before inducing EAMG.
Selected rats were divided into vehicle and compound treated groups. Neostigmine (an acetylcholinesterase inhibitor that is used clinically for the assessment and treatment of myasthenia gravis) was administered to test animals intraperitoneally at 0.2 mg/kg. After dosing, rats were reassessed for grip strength at 5, 10 and 20 minutes.
In the case of `CN(C)C(=O)Oc1cccc([N+](C)(C)C)c1` [neostigmine], the “forelimb grip strength (FIG. 2)” value is “increased forelimb grip strength”.
